# Literature values, collected in patent publication US7368472B2, “1,2,4-Triaminobenzene derivatives useful for treating disorders of the central nervous system” (priority 2002, dated 2008).
# Key:
# [1] = system: electrically induced seizures, seizures induced chemically by pentylenetetrazole, picrotoxin and NMDA, DBA/2 mouse; conditions: oral and intraperitoneal administration, rats and mice
# [2] = system: amygdala kindling model of complex partial seizures; conditions: in vivo
# [3] = system: incidence of seizures in epileptic patients
# [4] = system: K(+) current in neuronal cells
# [5] = system: kainic acid-induced status epilepticus; conditions: rat
# [6] = system: hippocampal kindling; conditions: rat
# [7] = system: animal models of anxiety-like behaviour; conditions: in vivo
compound,measurement,setting,value
"CCOC(=O)Nc1ccc(NCc2ccc(F)cc2)cc1N [Retigabine, N-(2-amino-4-(4-fluorobenzylamino)-phenyl) carbamic acid ethyl ester]",activity in anticonvulsant tests,[1],active
same,activity in amygdala kindling model,[2],active
same,reduction of seizure incidence in clinical trials,[3],effectiveness in reducing the incidence of seizures
same,activation of K(+) current,[4],activate a K(+) current
same,neuroprotection after status epilepticus,[5],prevent limbic neurodegeneration and the expression of markers of apoptosis
same,progression of hippocampal kindling,[6],delay the progression of hippocampal kindling
same,activity in models of anxiety-like behaviour,[7],active
